Read-outs that look alike come from different tables or passages of the source.
Key:
[1] = system: P-IKKα levels in L363 cells; assay: Effect of compounds on P-IKKα levels in L363 (NIK translocated multiple myeloma) cells; type: cell-based, human; conditions: averaged values, read-out: Inhibition of pIKKα_L-363 (IC50 (nM))
Experimental: Effect of compounds on P-IKKα levels in L363 (NIK translocated multiple myeloma) cells
All compounds tested were dissolved in DMSO and further dilutions were made in culture medium. Final DMSO concentration was 1% (v/v) in cell assays. The human L363 cells (ATCC) were cultured in RPMI 1640 medium supplemented with GlutaMax and 10% fetal calf serum (PAA). Cells were routinely maintained at densities of 0.2×10^6 cells per ml-1×10^6 cells per ml at 37° C. in a humidified 5% CO2 atmosphere. Cells were passaged twice a week splitting back to obtain the low density. Cells were seeded in 96 well plates (Nunc 167008) at 2×10^6 per ml media in a volume of 75 μl per well plus 25 μl 1 μg/ml recombinant human B-cell activating factor (BAFF/BLyS/TNFSF13B). Seeded cells were incubated at 37° C. in a humidified 5% CO2 atmosphere for 24 hr. Drugs and/or solvents were added (20 μl) to a final volume of 120 μl. Following 2 hr treatment plates were removed from the incubator and cell lysis was achieved by the addition of 30 μl 5× lysis buffer followed by shaking on a plate shaker at 4° C. for 10 min. At the end of this incubation lysed cells were centrifuged at 800×g for 20 min at 4° C. and the lysate was assessed for P-IKKα levels by sandwich immuno-assay carried out in anti-rabbit antibody coated Mesoscale plates. Within an experiment, the results for each treatment were the mean of 2 replicate wells. For initial screening purposes, compounds were tested using an 8 point dilution curve (serial 1:3 dilutions). For each experiment, controls (containing MG132 and BAFF but no test drug) and a blank incubation (containing MG132 and BAFF and 10 μM ADS125117, a test concentration known to give full inhibition) were run in parallel. The blank incubation value was subtracted from all control and sample values. To determine the IC50 a sigmoidal curve was fitted to the plot of % inhibition of control P-IKKα levels versus Log10 compound concentration.

[2] = target: recombinant human NF-kappaB-inducing kinase (NIK/MAP3K14) (Homo sapiens (Human), UniProt Q99558); assay: Inhibition of auto-phosphorylation of recombinant human NIK/MAP3K14 activity (AlphaScreen); type: biochemical; conditions: averaged values over all measurements on all batches
How it was run: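 AlphaScreen read-out, using anti-phospho-IKK Ser176/180 antibody, tracked NIK autophosphorylation after 1 h at 25° C. Reactions held 0.2 nM GST-NIK, 25 microM ATP and compound in 1% DMSO, Tris pH 7.5 buffer. IC50 fitted sigmoidally to blank-subtracted inhibition data.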

[3] = system: KMS12-BM cells; assay: Antiproliferative activity on KMS12-BM (NIK WT) multiple myeloma cells (CellTiter-Glo); type: cell-based, human; conditions: KMS12-BM (NIK WT) cells, 96 hr, averaged values, read-out: KMS-12 Proliferation inhibition (IC50 (nM))
How it was run: (§1)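 Viability was read by CellTiter-Glo after 96 hr compound exposure (9-point, 1:3 serial dilutions; 0.3% DMSO final). JJN-3 and KMS12-BM cells were seeded at 15000 and 20000 per well respectively in RPMI 1640/10% FCS; blank-subtracted signals were given as percent of drug-free controls.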

[4] = system: JJN-3 cells; assay: Antiproliferative activity on JJN-3 (NIK translocated) multiple myeloma cells (CellTiter-Glo); type: cell-based, human; conditions: JJN-3 (NIK translocated) cells, 96 hr, averaged values, read-out: JJN-3 Proliferation inhibition (IC50 (nM))
How it was run: as §1

[5] = Homo sapiens, L-363, L363 cells

recombinant human NF-kappaB-inducing kinase (NIK/MAP3K14), sequence (Q99558 whole entry): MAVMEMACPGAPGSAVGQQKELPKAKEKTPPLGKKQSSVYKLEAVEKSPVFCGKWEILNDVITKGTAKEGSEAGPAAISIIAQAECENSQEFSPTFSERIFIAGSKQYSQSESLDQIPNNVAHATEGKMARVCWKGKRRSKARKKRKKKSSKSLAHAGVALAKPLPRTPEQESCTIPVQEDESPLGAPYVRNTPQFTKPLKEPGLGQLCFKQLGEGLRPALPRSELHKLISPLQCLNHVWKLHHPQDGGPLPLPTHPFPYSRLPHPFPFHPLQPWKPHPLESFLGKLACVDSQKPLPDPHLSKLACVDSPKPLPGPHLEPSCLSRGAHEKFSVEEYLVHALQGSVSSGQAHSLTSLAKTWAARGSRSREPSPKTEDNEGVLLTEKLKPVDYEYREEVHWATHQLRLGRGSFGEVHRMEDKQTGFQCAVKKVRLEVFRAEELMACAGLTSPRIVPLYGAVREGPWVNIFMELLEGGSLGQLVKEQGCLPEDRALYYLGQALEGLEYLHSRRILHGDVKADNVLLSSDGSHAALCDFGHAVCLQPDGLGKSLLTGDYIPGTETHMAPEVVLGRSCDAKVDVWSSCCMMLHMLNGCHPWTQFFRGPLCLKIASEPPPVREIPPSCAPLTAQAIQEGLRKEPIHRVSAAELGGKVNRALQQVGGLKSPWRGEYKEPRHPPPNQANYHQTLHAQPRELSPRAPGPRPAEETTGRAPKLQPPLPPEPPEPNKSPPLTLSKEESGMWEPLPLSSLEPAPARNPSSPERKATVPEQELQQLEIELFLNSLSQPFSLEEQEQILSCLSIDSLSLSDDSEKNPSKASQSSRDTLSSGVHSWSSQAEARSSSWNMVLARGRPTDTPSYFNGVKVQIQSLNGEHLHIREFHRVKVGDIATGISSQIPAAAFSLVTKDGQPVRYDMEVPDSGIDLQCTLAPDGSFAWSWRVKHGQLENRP

Structure (SMILES)	IC50 [1, 5] [nM]	IC50 [2] [nM]	IC50 ([3]; Homo sapiens, KMS-12-BM, 96 h) [nM]	IC50 ([4]; Homo sapiens, JJN-3, 96 h) [nM]	IC50 ([1]; L363 cells) [nM]	IC50 [3] [nM]	IC50 [4] [nM]
CC(C)CCc1c(Nc2nccc(-c3cc(C#N)c4c(c3)[C@@](C)(CO)CN4)n2)cnn1C[C@@H]1COCCO1 [Compound 121]	25	5	> 10000	282	–	–	–
Cc1nn(C2CCN(C)CC2)cc1Nc1nccc(-c2cc(C#N)c3c(c2)[C@@](C)(CO)CN3)n1 [Compound 122]	1020	6.8	~1660	479	–	–	–
Cc1c(Nc2nccc(-c3cc(C#N)c4c(c3)[C@@](C)(CO)CN4)n2)cnn1C1CCN(C)CC1 [Compound 123]	20	1.6	~447	195	–	–	–
CN1CCC(Cn2nc(Cl)cc2Nc2nccc(-c3cc(C#N)c4c(c3)[C@@](C)(CO)CN4)n2)CC1 [Compound 124]	219	6.8	832	49	–	–	–
CC(C)CCc1c(Nc2nccc(-c3cc(C#N)c4c(c3)[C@@](C)(CO)CN4)n2)cnn1CCN1CCOCC1 [Compound 125]	1	3.5	> 10000	120	–	–	–
C[C@]1(CO)CNc2c(C#N)cc(-c3ccnc(Nc4cc(Cl)nn4C[C@@H]4COCCO4)n3)cc21 [Compound 126]	170	4.8	> 10000	468	–	–	–
CC(C)CCc1c(Nc2nccc(-c3cc(C#N)c4c(c3)[C@@](C)(CO)CN4)n2)cnn1CCO [Compound 127]	25	2	> 10000	617	–	–	–
C[C@]1(CO)CNc2c(C#N)cc(-c3ccnc(Nc4cc(C#N)nn4CCC4CC4)n3)cc21 [Compound 128]	~41	3.7	1900	417	–	–	–
C[C@]1(CO)CNc2c(C#N)cc(-c3ccnc(Nc4cc(Cl)nn4C[C@@H]4CCOC4)n3)cc21 [Compound 129]	28	3.8	2040	251	–	–	–
CC(C)CCc1nn(Cc2cncn2C)cc1Nc1nccc(-c2cc(C#N)c3c(c2)[C@@](C)(CO)CN3)n1 [Compound 130]	115	6	> 10000	1000	–	–	–
Cc1cc(Nc2nccc(-c3cc(C#N)c4c(c3)[C@@](C)(CO)CN4)n2)n(CC2(F)CCN(C)CC2)n1 [Compound 131]	166	5.9	> 10000	224	–	–	–
Cc1nn(CC(F)F)cc1Nc1nccc(-c2cc(C#N)c3c(c2)[C@@](C)(CO)CN3)n1 [Compound 132]	2	1	~1860	58	–	–	–
C[C@]1(CO)CNc2c(C#N)cc(-c3ccnc(Nc4cc(Cl)nn4C[C@H]4COCCO4)n3)cc21 [Compound 133]	65	6.9	6610	389	–	–	–
C[C@]1(CO)CNc2c(C#N)cc(-c3ccnc(Nc4cc(Cl)nn4CC4CCN(CCF)CC4)n3)cc21 [Compound 134]	107	4.8	2240	47	–	–	–
Cc1cc(Nc2nccc(-c3cc(C#N)c4c(c3)[C@@](C)(CO)CN4)n2)n(CC(=O)O)n1 [Compound 135]	229	5.1	> 10000	> 10000	–	–	–
Cc1cc(Nc2nccc(-c3cc(C#N)c4c(c3)C(C)(CO)CN4)n2)n(CC2CCN(CC(=O)N(C)C)CC2)n1 (stereo not shown) [Compound 136]	562	7.2	> 10000	724	–	–	–
Cc1cc(Nc2nccc(-c3cc(C#N)c4c(c3)[C@@](C)(CO)CN4)n2)n(CC2CCN(CC(F)(F)F)CC2)n1 [Compound 137]	36	6.3	> 10000	676	–	–	–

Structure (SMILES)	IC50 [1, 5] [nM]	IC50 [2] [nM]	IC50 ([3]; Homo sapiens, KMS-12-BM, 96 h) [nM]	IC50 ([4]; Homo sapiens, JJN-3, 96 h) [nM]	IC50 ([1]; L363 cells) [nM]	IC50 [3] [nM]	IC50 [4] [nM]
COCCN1CCC(Cn2nc(Cl)cc2Nc2nccc(-c3cc(C#N)c4c(c3)[C@@](C)(CO)CN4)n2)CC1 [Compound 138]	178	8.3	2570	44	–	–	–
Cc1cc(Nc2nccc(-c3cc(C#N)c4c(c3)[C@@](C)(CO)CN4)n2)n(C[C@@H]2CN(C)CCO2)n1 [Compound 139]	182	13	> 10000	1120	–	–	–
Cc1nc(Nc2nccc(-c3cc(C#N)c4c(c3)[C@@](C)(CO)CN4)n2)sc1C(=O)N(C)C [Compound 149]	8	0.7	~741	50	–	–	–
Cn1cc(Nc2nccc(-c3cc(C#N)c4c(c3)[C@@](C)(CO)CN4)n2)c(CN2CCOCC2)n1 [Compound 150]	170	15	> 10000	2400	–	–	–
CC(C)Cn1nc(CO)cc1Nc1nccc(-c2cc(C#N)c3c(c2)[C@@](C)(CO)CN3)n1 [Compound 151]	13	2	7080	871	–	–	–
C[C@]1(CO)CNc2c(C#N)cc(-c3ccnc(Nc4cc(Cl)nn4CC4CCN(CC(F)(F)F)CC4)n3)cc21 [Compound 152]	135	17	7940	646	–	–	–
COCCn1nc(CO)cc1Nc1nccc(-c2cc(C#N)c3c(c2)[C@@](C)(CO)CN3)n1 [Compound 153]	28	4.3	> 10000	1440	–	–	–
Cc1cc(Nc2nccc(-c3cc(C#N)c4c(c3)[C@@](C)(CO)CN4)n2)n(CCC2(C)COC2)n1 [Compound 154]	15	4.9	2290	646	–	–	–
COCCN1CCC(Cn2nc(C)cc2Nc2nccc(-c3cc(C#N)c4c(c3)[C@@](C)(CO)CN4)n2)CC1 [Compound 155]	126	9.3	> 10000	59	–	–	–
CC(C)n1nc(CO)cc1Nc1nccc(-c2cc(C#N)c3c(c2)[C@@](C)(CO)CN3)n1 [Compound 156]	14	3.6	~7240	1260	–	–	–
C[C@@]1(CO)CNc2c(C#N)cc(-c3ccnc(Nc4cnn(CCC5CC5)c4CN4CCOCC4)n3)cc21 [Compound 159]	–	10	–	–	91	> 10000	1510
CN1CCC(F)(Cn2nc(Cl)cc2Nc2nccc(-c3cc(C#N)c4c(c3)[C@@](C)(CO)CN4)n2)CC1 [Compound 160]	34	3.6	~5010	69	–	–	–
CN1CC[C@@H](Cn2nc(Cl)cc2Nc2nccc(-c3cc(C#N)c4c(c3)[C@@](C)(CO)CN4)n2)C1 [Compound 161]	83	4.3	2240	204	–	–	–
CC(C)CCc1c(Nc2nccc(-c3cc(C#N)c4c(c3)[C@@](C)(CO)CN4)n2)cnn1CC1CCN(CC(F)(F)F)CC1 [Compound 163]	5	12	> 10000	309	–	–	–
CC(C)n1nc(Nc2nccc(-c3cc(C#N)c4c(c3)[C@@](C)(CO)CN4)n2)cc1C(=O)NC1CC1 [Compound 164]	< 0.66	2.6	4680	132	–	–	–
Cc1cc(Nc2nccc(-c3cc(C#N)c4c(c3)[C@@](C)(CO)CN4)n2)n(CCN2CCOCC2)n1 [Compound 165]	48	8.5	> 10000	1620	–	–	–
CN1CCN(Cc2nn(C)cc2Nc2nccc(-c3cc(C#N)c4c(c3)[C@@](C)(CO)CN4)n2)CC1 [Compound 166]	151	13	> 10000	37	–	–	–

— patent US11136311B2, “Heteroaromatic derivatives as NIK inhibitors” (Janssen Pharmaceutica NV, priority 2016, dated 2021)
